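Five compound concentrations were applied to cells in 96-well plates for 48 hours; endpoints were derived by simple linear interpolation of the resulting dose-response curve. GI50 marks 50% less growth. TGI: concentration producing complete growth inhibition.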
Key:
Experiment in all cases: growth of human tumour cells (NCI), 48 h
SK-MEL-2 melanoma = system: SK-MEL-2 melanoma
SN12C renal = system: SN12C renal
TK-10 renal = system: TK-10 renal
SW-620 colon = system: SW-620 colon
MCF7 breast = system: MCF7 breast
SNB-19 CNS = system: SNB-19 CNS
UACC-257 melanoma = system: UACC-257 melanoma
LOX IMVI melanoma = system: LOX IMVI melanoma
HS 578T breast = system: HS 578T breast
NCI-H226 lung = system: NCI-H226 lung
SF-268 CNS = system: SF-268 CNS
MDA-MB-231 breast = system: MDA-MB-231 breast
SK-OV-3 ovarian = system: SK-OV-3 ovarian
U251 CNS = system: U251 CNS
MOLT-4 leukemia = system: MOLT-4 leukemia
UACC-62 melanoma = system: UACC-62 melanoma
786-0 renal = system: 786-0 renal
MDA-MB-468 breast = system: MDA-MB-468 breast
SF-295 CNS = system: SF-295 CNS
NCI-H522 lung = system: NCI-H522 lung
SK-MEL-5 melanoma = system: SK-MEL-5 melanoma
NCI-H460 lung = system: NCI-H460 lung
OVCAR-5 ovarian = system: OVCAR-5 ovarian
SNB-75 CNS = system: SNB-75 CNS
SK-MEL-28 melanoma = system: SK-MEL-28 melanoma
PC-3 prostate = system: PC-3 prostate
EKVX NSCLC = system: EKVX NSCLC
SR leukemia = system: SR leukemia
A549 NSCLC = system: A549 NSCLC
HCC-2998 colon = system: HCC-2998 colon
A498 renal = system: A498 renal
KM12 colon = system: KM12 colon
COLO 205 colon = system: COLO 205 colon
HCT-15 colon = system: HCT-15 colon
UO-31 renal = system: UO-31 renal
HCT-116 colon = system: HCT-116 colon
T-47D breast = system: T-47D breast
K-562 leukemia = system: K-562 leukemia
CAKI-1 renal = system: CAKI-1 renal
HOP-62 NSCLC = system: HOP-62 NSCLC
OVCAR-8 ovarian = system: OVCAR-8 ovarian
RPMI-8226 leukemia = system: RPMI-8226 leukemia
OVCAR-3 ovarian = system: OVCAR-3 ovarian
OVCAR-4 ovarian = system: OVCAR-4 ovarian
HOP-92 NSCLC = system: HOP-92 NSCLC
IGROV1 ovarian = system: IGROV1 ovarian
MALME-3M melanoma = system: MALME-3M melanoma
ACHN renal = system: ACHN renal
NCI-H23 lung = system: NCI-H23 lung
RXF 393 renal = system: RXF 393 renal
DU-145 prostate = system: DU-145 prostate
HT29 colon = system: HT29 colon
HL-60(TB) leukemia = system: HL-60(TB) leukemia
BT-549 breast = system: BT-549 breast
M14 melanoma = system: M14 melanoma
MDA-MB-435 = system: MDA-MB-435
SF-539 CNS = system: SF-539 CNS

Question: Which GI50 (SK-MEL-2 melanoma) does the source give for N#CC1=C(c2ccco2)Nc2c(c(-c3ccccc3)nn2-c2ccccc2)C12C(=O)Nc1ccc(Br)cc12 (centres undefined) here?
Answer: 18.1 µM

Question: What about the TGI (SK-MEL-2 melanoma) of the same molecule?
Answer: 36.7 µM

Question: And the GI50 (SN12C renal)?
Answer: 18.3 µM

Question: And the TGI (SN12C renal)?
Answer: 35.6 µM

Question: And the GI50 (TK-10 renal)?
Answer: 17 µM

Question: What about the TGI (TK-10 renal) of the same molecule?
Answer: 33.5 µM

Question: What about the GI50 (SW-620 colon) of the same molecule?
Answer: 30 µM

Question: And the TGI (SW-620 colon)?
Answer: 97.6 µM

Question: And the GI50 (MCF7 breast)?
Answer: 17.3 µM

Question: What about the TGI (MCF7 breast) of the same molecule?
Answer: 33.1 µM

Question: And the GI50 (SNB-19 CNS)?
Answer: 18.6 µM

Question: What about the TGI (SNB-19 CNS) of the same molecule?
Answer: 42.2 µM

Question: And the GI50 (UACC-257 melanoma)?
Answer: 20.5 µM

Question: What about the TGI (UACC-257 melanoma) of the same molecule?
Answer: 50.6 µM

Question: And the GI50 (LOX IMVI melanoma)?
Answer: 18.1 µM

Question: What about the TGI (LOX IMVI melanoma) of the same molecule?
Answer: 34.8 µM

Question: What about the GI50 (HS 578T breast) of the same molecule?
Answer: 19.3 µM

Question: What about the TGI (HS 578T breast) of the same molecule?
Answer: 47.8 µM

Question: And the GI50 (NCI-H226 lung)?
Answer: 21.1 µM

Question: And the TGI (NCI-H226 lung)?
Answer: 44.4 µM

Question: What about the GI50 (SF-268 CNS) of the same molecule?
Answer: 26.8 µM

Question: What about the TGI (SF-268 CNS) of the same molecule?
Answer: 74 µM

Question: And the GI50 (MDA-MB-231 breast)?
Answer: 18.3 µM

Question: And the TGI (MDA-MB-231 breast)?
Answer: 34.2 µM

Question: What about the GI50 (SK-OV-3 ovarian) of the same molecule?
Answer: 17.3 µM

Question: What about the TGI (SK-OV-3 ovarian) of the same molecule?
Answer: 34.1 µM

Question: And the GI50 (U251 CNS)?
Answer: 18 µM

Question: What about the TGI (U251 CNS) of the same molecule?
Answer: 33.4 µM

Question: And the GI50 (MOLT-4 leukemia)?
Answer: 35.2 µM

Question: What about the TGI (MOLT-4 leukemia) of the same molecule?
Answer: > 100 µM

Question: And the GI50 (UACC-62 melanoma)?
Answer: 17.2 µM

Question: What about the TGI (UACC-62 melanoma) of the same molecule?
Answer: 32.1 µM

Question: And the GI50 (786-0 renal)?
Answer: 21.3 µM

Question: And the TGI (786-0 renal)?
Answer: 51.8 µM

Question: What about the GI50 (MDA-MB-468 breast) of the same molecule?
Answer: 26 µM

Question: And the TGI (MDA-MB-468 breast)?
Answer: 69.3 µM

Question: What about the GI50 (SF-295 CNS) of the same molecule?
Answer: 19.6 µM

Question: What about the TGI (SF-295 CNS) of the same molecule?
Answer: 50 µM

Question: What about the GI50 (NCI-H522 lung) of the same molecule?
Answer: 20.4 µM

Question: And the TGI (NCI-H522 lung)?
Answer: 48.4 µM

Question: What about the GI50 (SK-MEL-5 melanoma) of the same molecule?
Answer: 18 µM

Question: And the TGI (SK-MEL-5 melanoma)?
Answer: 32.6 µM

Question: What about the GI50 (NCI-H460 lung) of the same molecule?
Answer: 17.9 µM

Question: And the TGI (NCI-H460 lung)?
Answer: 33.4 µM

Question: And the GI50 (OVCAR-5 ovarian)?
Answer: 19.1 µM

Question: What about the TGI (OVCAR-5 ovarian) of the same molecule?
Answer: 44.2 µM

Question: What about the GI50 (SNB-75 CNS) of the same molecule?
Answer: 16 µM

Question: And the TGI (SNB-75 CNS)?
Answer: 38 µM

Question: What about the GI50 (SK-MEL-28 melanoma) of the same molecule?
Answer: 17.9 µM

Question: And the TGI (SK-MEL-28 melanoma)?
Answer: 33.6 µM

Question: And the GI50 (PC-3 prostate)?
Answer: 16.2 µM

Question: What about the TGI (PC-3 prostate) of the same molecule?
Answer: 31.6 µM

Question: And the GI50 (EKVX NSCLC)?
Answer: 20.9 µM

Question: What about the TGI (EKVX NSCLC) of the same molecule?
Answer: 54.6 µM

Question: And the GI50 (SR leukemia)?
Answer: 48.9 µM

Question: What about the TGI (SR leukemia) of the same molecule?
Answer: > 100 µM

Question: And the GI50 (A549 NSCLC)?
Answer: 17.4 µM

Question: And the TGI (A549 NSCLC)?
Answer: 33 µM

Question: What about the GI50 (HCC-2998 colon) of the same molecule?
Answer: 36.5 µM

Question: What about the TGI (HCC-2998 colon) of the same molecule?
Answer: > 100 µM

Question: And the GI50 (A498 renal)?
Answer: 16.8 µM

Question: And the TGI (A498 renal)?
Answer: 32.1 µM

Question: What about the GI50 (KM12 colon) of the same molecule?
Answer: 33.2 µM

Question: And the TGI (KM12 colon)?
Answer: > 100 µM

Question: What about the GI50 (COLO 205 colon) of the same molecule?
Answer: 25.4 µM

Question: And the TGI (COLO 205 colon)?
Answer: 69.1 µM

Question: And the GI50 (HCT-15 colon)?
Answer: 18.1 µM

Question: And the TGI (HCT-15 colon)?
Answer: 36.9 µM

Question: And the GI50 (UO-31 renal)?
Answer: 28.1 µM

Question: What about the TGI (UO-31 renal) of the same molecule?
Answer: > 100 µM

Question: What about the GI50 (HCT-116 colon) of the same molecule?
Answer: 18.6 µM

Question: What about the TGI (HCT-116 colon) of the same molecule?
Answer: 36.3 µM

Question: What about the GI50 (T-47D breast) of the same molecule?
Answer: 30.4 µM

Question: What about the TGI (T-47D breast) of the same molecule?
Answer: > 100 µM

Question: And the GI50 (K-562 leukemia)?
Answer: 38 µM

Question: What about the TGI (K-562 leukemia) of the same molecule?
Answer: > 100 µM

Question: What about the GI50 (CAKI-1 renal) of the same molecule?
Answer: 19.3 µM

Question: What about the TGI (CAKI-1 renal) of the same molecule?
Answer: 43.2 µM

Question: And the GI50 (HOP-62 NSCLC)?
Answer: 18.4 µM

Question: What about the TGI (HOP-62 NSCLC) of the same molecule?
Answer: 37.8 µM

Question: What about the GI50 (OVCAR-8 ovarian) of the same molecule?
Answer: 18 µM

Question: And the TGI (OVCAR-8 ovarian)?
Answer: 33.1 µM

Question: And the GI50 (RPMI-8226 leukemia)?
Answer: 35.9 µM

Question: What about the TGI (RPMI-8226 leukemia) of the same molecule?
Answer: > 100 µM

Question: What about the GI50 (OVCAR-3 ovarian) of the same molecule?
Answer: 28.9 µM

Question: And the TGI (OVCAR-3 ovarian)?
Answer: 96.4 µM

Question: What about the GI50 (OVCAR-4 ovarian) of the same molecule?
Answer: 19.2 µM

Question: What about the TGI (OVCAR-4 ovarian) of the same molecule?
Answer: 40.7 µM

Question: And the GI50 (HOP-92 NSCLC)?
Answer: 16.8 µM

Question: What about the TGI (HOP-92 NSCLC) of the same molecule?
Answer: 33.2 µM

Question: What about the GI50 (IGROV1 ovarian) of the same molecule?
Answer: 18.5 µM

Question: And the TGI (IGROV1 ovarian)?
Answer: 34.6 µM

Question: What about the GI50 (MALME-3M melanoma) of the same molecule?
Answer: 16.1 µM

Question: And the TGI (MALME-3M melanoma)?
Answer: 29.9 µM

Question: What about the GI50 (ACHN renal) of the same molecule?
Answer: 18.7 µM

Question: And the TGI (ACHN renal)?
Answer: 35.7 µM

Question: And the GI50 (NCI-H23 lung)?
Answer: 21.5 µM

Question: And the TGI (NCI-H23 lung)?
Answer: 47.7 µM

Question: And the GI50 (RXF 393 renal)?
Answer: 17.3 µM

Question: And the TGI (RXF 393 renal)?
Answer: 34.5 µM

Question: What about the GI50 (DU-145 prostate) of the same molecule?
Answer: 20.5 µM

Question: What about the TGI (DU-145 prostate) of the same molecule?
Answer: 40.2 µM

Question: What about the GI50 (HT29 colon) of the same molecule?
Answer: 18.3 µM

Question: What about the TGI (HT29 colon) of the same molecule?
Answer: 35.2 µM

Question: And the GI50 (HL-60(TB) leukemia)?
Answer: 53.2 µM

Question: What about the TGI (HL-60(TB) leukemia) of the same molecule?
Answer: > 100 µM

Question: And the GI50 (BT-549 breast)?
Answer: 14.6 µM

Question: What about the TGI (BT-549 breast) of the same molecule?
Answer: 29.7 µM

Question: And the GI50 (M14 melanoma)?
Answer: 18.5 µM

Question: What about the TGI (M14 melanoma) of the same molecule?
Answer: 36.8 µM

Question: And the GI50 (MDA-MB-435)?
Answer: 24.2 µM

Question: What about the TGI (MDA-MB-435) of the same molecule?
Answer: 61.5 µM

Question: What about the GI50 (SF-539 CNS) of the same molecule?
Answer: 18.1 µM

Question: And the TGI (SF-539 CNS)?
Answer: 35.1 µM

From PubChem BioAssay (NCI)
